Laboratory results: article PMC7413254 (Nature Communications, 2020)
Read-outs that look alike come from different tables or passages of the source.

How the values were obtained:
non-expressing oocytes [1] = test: cells; type: cell-based, Xenopus laevis; conditions: non-expressing oocytes, total [3H]CQ transport, normalised to the oocyte type control
Summary of the method: (§1)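 Washed oocytes (ten per treatment) were exposed to label in pH 5.5 ND96 for 1.5 h at 27.5 °C. Buffer was then removed, cells rinsed in ice-cold ND96, lysed in SDS and counted.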

PfCRT^3D7 [2] = target: T1, PfCRT^3D7 (Plasmodium falciparum, UniProt Q8IBZ9); test: cell-based; type: cell-based; conditions: PfCRT3D7 oocytes, total [3H]CQ transport, normalised to the oocyte type control
Summary of the method: as §1

PfCRT^Dd2 [3] = target: T2, PfCRT^Dd2 (Plasmodium falciparum, UniProt Q9N623, A220S/I356T/K76T/M74I/N326S/N75E/Q271E/R371I); test: [3H]CQ uptake into Xenopus oocytes, cis-inhibition by unlabelled solute; type: cell-based; conditions: PfCRTDd2 oocytes, background [3H]CQ accumulation subtracted, normalised to oocyte type control
Summary of the method: as §1

PfCRT^Ecu1110 [4] = target: T3, PfCRT^Ecu1110 (Plasmodium falciparum, UniProt Q9N623, A220S/I356L/K76T/N326D); test: as above; type: cell-based; conditions: for Uptake of [3H]CQ (% PfCRTEcu1110 control), cis-inhibition / PfCRT-mediated [3H]CQ transport, cis-inhibition (% PfCRTEcu1110 control): PfCRTEcu1110 oocytes; for Uptake of [3H]CQ (% PfCRTEcu1110 control), cis-inhibition: total [3H]CQ transport, normalised to the oocyte type control; for PfCRT-mediated [3H]CQ transport, cis-inhibition (% PfCRTEcu1110 control): background [3H]CQ accumulation subtracted, normalised to oocyte type control; for [3H]CQ transport (% PfCRTEcu1110 control), cis-inhibition, PfCRTEcu1110: PfCRT-mediated component (background subtracted), sheet title says normalised to PfCRTDd2 control, mean ± SEM, SEM
Summary of the method: as §1

non-expressing oocytes [5] = type: cell-based, Xenopus laevis; conditions: non-expressing oocytes, total [3H]CQ transport, normalised to the oocyte type control
Summary of the method: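 Oocytes (ten per treatment, ≥4 independent frogs/days) were preloaded by injecting VF-6 in 25 nL ND96 at pH 5.0, 5.5, 6.0 or 7.0, or Na^+-free choline buffer, then uptake run 1.5 h, 27.5 °C, ND96 pH 5.5 by default. Internal concentrations assumed ~400 nL oocyte volume.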

PfCRT^3D7 [6] = target: T1, PfCRT^3D7; test: cell-based; type: cell-based; conditions: PfCRT3D7 oocytes; for Uptake of [3H]CQ (% PfCRT3D7 control), trans-stimulation: total [3H]CQ transport, normalised to the oocyte type control; for PfCRT-mediated [3H]CQ transport, trans-stimulation (% PfCRT3D7 control): normalised to oocyte type control
Summary of the method: (§2)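 Transport measured in Xenopus oocytes expressing the transporters, 1.5 h at 27.5 °C in ND96 pH 5.5 unless noted. For trans-stimulation, VF-6 injected in 25 nL ND96 at pH 5.0–7.0 or Na^+-free (choline) buffer; intracellular levels based on ~400 nL oocyte volume. Ten oocytes per treatment, ≥4 experiments.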

PfCRT^Dd2 [7] = target: T2, PfCRT^Dd2; test: cell-based; type: cell-based; conditions: for Uptake of [3H]CQ (% PfCRTDd2 control), trans-stimulation / PfCRT-mediated [3H]CQ transport, trans-stimulation (% PfCRTDd2 control): PfCRTDd2 oocytes; for Uptake of [3H]CQ (% PfCRTDd2 control), trans-stimulation: total [3H]CQ transport, normalised to the oocyte type control; for PfCRT-mediated [3H]CQ transport, trans-stimulation (% PfCRTDd2 control): normalised to oocyte type control; for [3H]CQ transport (% PfCRTDd2 control), trans-stimulation, PfCRTDd2: PfCRT-mediated component (background subtracted), mean ± SEM, SEM
Summary of the method: as §2

PfCRT^Ecu1110 [8] = target: T3, PfCRT^Ecu1110; test: cell-based; type: cell-based; conditions: for Uptake of [3H]CQ (% PfCRTEcu1110 control), trans-stimulation / PfCRT-mediated [3H]CQ transport, trans-stimulation (% PfCRTEcu1110 control): PfCRTEcu1110 oocytes; for Uptake of [3H]CQ (% PfCRTEcu1110 control), trans-stimulation: total [3H]CQ transport, normalised to the oocyte type control; for PfCRT-mediated [3H]CQ transport, trans-stimulation (% PfCRTEcu1110 control): normalised to oocyte type control; for [3H]CQ transport (% PfCRTDd2 control), trans-stimulation, PfCRTEcu1110: PfCRT-mediated component (background subtracted), sheet title says normalised to PfCRTDd2 control, mean ± SEM, SEM
Summary of the method: as §2

PfNT1 = target: T4, PfNT1 (Plasmodium falciparum, UniProt Q8IDM6); test: cell-based; type: cell-based; conditions: PfNT1 oocytes, total [3H]CQ transport, normalised to the oocyte type control
T4 construct: expressed in transfected cells; host or cells: Xenopus laevis oocytes (stage V-VI), cRNA-injected
Summary of the method: as §2

[9] = [test solute]i = 45 mM (30 mM for some solutes due to solubility)
[10] = [test solute]i = 5 mM (intracellular)
[11] = [test solute]i = 45 mM (intracellular; 30 mM for some solutes due to solubility)
[12] = [test solute]i = 5 mM (injected)

T3 sequence (Q9N623 whole entry A220S/I356L/K76T/N326D): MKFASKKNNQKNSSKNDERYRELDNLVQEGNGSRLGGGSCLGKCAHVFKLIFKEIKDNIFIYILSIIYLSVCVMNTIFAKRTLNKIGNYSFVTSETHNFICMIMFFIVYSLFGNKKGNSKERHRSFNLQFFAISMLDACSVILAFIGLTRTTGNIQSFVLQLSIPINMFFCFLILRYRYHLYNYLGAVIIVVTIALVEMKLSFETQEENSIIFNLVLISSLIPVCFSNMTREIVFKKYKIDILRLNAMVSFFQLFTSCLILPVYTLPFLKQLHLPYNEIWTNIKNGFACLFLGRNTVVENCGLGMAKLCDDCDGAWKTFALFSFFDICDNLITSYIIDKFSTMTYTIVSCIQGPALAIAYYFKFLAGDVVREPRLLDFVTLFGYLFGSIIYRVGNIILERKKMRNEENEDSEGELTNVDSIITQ
T1 sequence (Q8IBZ9 59-398): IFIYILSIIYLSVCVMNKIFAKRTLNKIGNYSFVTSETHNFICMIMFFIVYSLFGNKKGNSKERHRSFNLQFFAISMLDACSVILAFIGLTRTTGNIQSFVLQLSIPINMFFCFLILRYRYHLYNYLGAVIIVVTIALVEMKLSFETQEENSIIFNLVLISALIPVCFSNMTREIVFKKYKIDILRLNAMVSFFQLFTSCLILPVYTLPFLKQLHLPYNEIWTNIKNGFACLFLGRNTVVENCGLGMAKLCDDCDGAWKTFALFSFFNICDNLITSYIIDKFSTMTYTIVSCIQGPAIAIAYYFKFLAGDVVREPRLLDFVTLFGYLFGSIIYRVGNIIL
T2 sequence (Q9N623 whole entry A220S/I356T/K76T/M74I/N326S/N75E/Q271E/R371I): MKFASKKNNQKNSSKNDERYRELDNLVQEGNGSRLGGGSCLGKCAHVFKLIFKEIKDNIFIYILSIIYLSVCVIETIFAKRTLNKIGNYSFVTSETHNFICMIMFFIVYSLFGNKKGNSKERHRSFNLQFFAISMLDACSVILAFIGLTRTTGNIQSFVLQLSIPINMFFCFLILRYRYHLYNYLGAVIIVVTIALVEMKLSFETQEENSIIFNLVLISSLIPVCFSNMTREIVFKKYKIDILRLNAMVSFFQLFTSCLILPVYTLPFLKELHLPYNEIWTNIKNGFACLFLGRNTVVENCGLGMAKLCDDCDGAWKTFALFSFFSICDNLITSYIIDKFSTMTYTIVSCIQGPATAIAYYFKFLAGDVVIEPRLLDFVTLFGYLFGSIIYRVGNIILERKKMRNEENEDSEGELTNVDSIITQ
T4 sequence (Q8IDM6 whole entry): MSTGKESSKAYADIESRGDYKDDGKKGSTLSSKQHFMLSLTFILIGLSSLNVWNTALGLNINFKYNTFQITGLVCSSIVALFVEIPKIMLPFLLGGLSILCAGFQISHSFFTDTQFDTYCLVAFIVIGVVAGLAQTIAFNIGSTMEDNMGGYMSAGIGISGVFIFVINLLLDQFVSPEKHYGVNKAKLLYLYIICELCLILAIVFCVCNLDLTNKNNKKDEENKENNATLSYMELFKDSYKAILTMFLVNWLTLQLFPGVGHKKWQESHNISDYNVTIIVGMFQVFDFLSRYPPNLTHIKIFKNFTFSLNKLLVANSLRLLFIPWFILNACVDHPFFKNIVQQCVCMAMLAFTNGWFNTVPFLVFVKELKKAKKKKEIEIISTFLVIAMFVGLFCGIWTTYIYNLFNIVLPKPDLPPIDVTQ

With ASLD [AD-4] the “Uptake of [3H]CQ (% non-expressing oocyte control), cis-inhibition” value (non-expressing oocytes [1]; [test solute] = 0.5 mM) was 99 ± 5.3 % non-expressing oocyte control, the “Uptake of [3H]CQ (% non-expressing oocyte control), cis-inhibition” value (non-expressing oocytes [1]; [test solute] = 1 mM) was 99 ± 5.2 % non-expressing oocyte control and the “Uptake of [3H]CQ (% non-expressing oocyte control), cis-inhibition” value (non-expressing oocytes [1]; [test solute] = 2 mM) was 99 ± 4.6 % non-expressing oocyte control. The “Uptake of [3H]CQ (% PfCRT3D7 control), cis-inhibition” value (PfCRT^3D7 [2]; [test solute] = 0.5 mM) was 98 ± 4.4 % PfCRT3D7 control, the “Uptake of [3H]CQ (% PfCRT3D7 control), cis-inhibition” value (PfCRT^3D7 [2]; [test solute] = 1 mM) was 99 ± 4.7 % PfCRT3D7 control and the “Uptake of [3H]CQ (% PfCRT3D7 control), cis-inhibition” value (PfCRT^3D7 [2]; [test solute] = 2 mM) was 99 ± 6.1 % PfCRT3D7 control. For the same substance, the “PfCRT-mediated [3H]CQ transport, cis-inhibition (% PfCRTDd2 control)” value (PfCRT^Dd2 [3]; [test solute] = 0.5 mM) was 31 ± 1.9 % PfCRTDd2 control, the “PfCRT-mediated [3H]CQ transport, cis-inhibition (% PfCRTDd2 control)” value (PfCRT^Dd2 [3]; [test solute] = 1 mM) was 22 ± 0.8 % PfCRTDd2 control and the “PfCRT-mediated [3H]CQ transport, cis-inhibition (% PfCRTDd2 control)” value (PfCRT^Dd2 [3]; [test solute] = 2 mM) was 12 ± 0.3 % PfCRTDd2 control. For the same substance, the “Uptake of [3H]CQ (% PfCRTEcu1110 control), cis-inhibition” value (PfCRT^Ecu1110 [4]; [test solute] = 0.5 mM) was 49 ± 9.7 % PfCRTEcu1110 control, the “Uptake of [3H]CQ (% PfCRTEcu1110 control), cis-inhibition” value (PfCRT^Ecu1110 [4]; [test solute] = 1 mM) was 32 ± 8.5 % PfCRTEcu1110 control and the “Uptake of [3H]CQ (% PfCRTEcu1110 control), cis-inhibition” value (PfCRT^Ecu1110 [4]; [test solute] = 2 mM) was 26 ± 5.6 % PfCRTEcu1110 control. The “PfCRT-mediated [3H]CQ transport, cis-inhibition (% PfCRTEcu1110 control)” value (PfCRT^Ecu1110 [4]; [test solute] = 0.5 mM) was 42 ± 2.1 % PfCRTEcu1110 control, the “PfCRT-mediated [3H]CQ transport, cis-inhibition (% PfCRTEcu1110 control)” value (PfCRT^Ecu1110 [4]; [test solute] = 1 mM) was 28 ± 3.4 % PfCRTEcu1110 control and the “PfCRT-mediated [3H]CQ transport, cis-inhibition (% PfCRTEcu1110 control)” value (PfCRT^Ecu1110 [4]; [test solute] = 2 mM) was 21 ± 1.1 % PfCRTEcu1110 control. The “[3H]CQ transport (% PfCRTEcu1110 control), cis-inhibition, PfCRTEcu1110” value (PfCRT^Ecu1110 [4]; [test solute] = 0.5 mM) was 13 ± 0.2 % PfCRTEcu1110 control, the “[3H]CQ transport (% PfCRTEcu1110 control), cis-inhibition, PfCRTEcu1110” value (PfCRT^Ecu1110 [4]; [test solute] = 2 mM) was 6.0 ± 0.03 % PfCRTEcu1110 control and the “Uptake of [3H]CQ (% non-expressing oocyte control), trans-stimulation” value (non-expressing oocytes [5]; [test solute]i = 5 mM) was 100 ± 4.9 % non-expressing oocyte control. The “Uptake of [3H]CQ (% non-expressing oocyte control), trans-stimulation” value (non-expressing oocytes [5]; [9]) was 98 ± 2.6 % non-expressing oocyte control, the “Uptake of [3H]CQ (% PfCRT3D7 control), trans-stimulation” value (PfCRT^3D7 [6]; [test solute]i = 5 mM) was 99 ± 3.7 % PfCRT3D7 control and the “Uptake of [3H]CQ (% PfCRT3D7 control), trans-stimulation” value (PfCRT^3D7 [6]; [9]) was 100 ± 2.6 % PfCRT3D7 control. The “PfCRT-mediated [3H]CQ transport, trans-stimulation (% PfCRT3D7 control)” value (PfCRT^3D7 [6]; [10]) was 97 ± 2.0 % PfCRT3D7 control, the “PfCRT-mediated [3H]CQ transport, trans-stimulation (% PfCRT3D7 control)” value (PfCRT^3D7 [6]; [11]) was 98 ± 3.3 % PfCRT3D7 control and the “Uptake of [3H]CQ (% PfCRTDd2 control), trans-stimulation” value (PfCRT^Dd2 [7]; [test solute]i = 5 mM) was 98 ± 3.3 % PfCRTDd2 control. The “Uptake of [3H]CQ (% PfCRTDd2 control), trans-stimulation” value (PfCRT^Dd2 [7]; [9]) was 97 ± 3.9 % PfCRTDd2 control, the “PfCRT-mediated [3H]CQ transport, trans-stimulation (% PfCRTDd2 control)” value (PfCRT^Dd2 [7]; [10]) was 96 ± 2.9 % PfCRTDd2 control and the “PfCRT-mediated [3H]CQ transport, trans-stimulation (% PfCRTDd2 control)” value (PfCRT^Dd2 [7]; [11]) was 95 ± 2.6 % PfCRTDd2 control. For the same substance, the “[3H]CQ transport (% PfCRTDd2 control), trans-stimulation, PfCRTDd2” value (PfCRT^Dd2 [7]; [12]) was 96 ± 2.9 % PfCRTDd2 control, the “[3H]CQ transport (% PfCRTDd2 control), trans-stimulation, PfCRTDd2” value (PfCRT^Dd2 [7]; [9]) was 95 ± 2.6 % PfCRTDd2 control and the “Uptake of [3H]CQ (% PfCRTEcu1110 control), trans-stimulation” value (PfCRT^Ecu1110 [8]; [test solute]i = 5 mM) was 100 ± 3.2 % PfCRTEcu1110 control. For the same substance, the “Uptake of [3H]CQ (% PfCRTEcu1110 control), trans-stimulation” value (PfCRT^Ecu1110 [8]; [9]) was 99 ± 3.2 % PfCRTEcu1110 control, the “PfCRT-mediated [3H]CQ transport, trans-stimulation (% PfCRTEcu1110 control)” value (PfCRT^Ecu1110 [8]; [10]) was 98 ± 4.1 % PfCRTEcu1110 control and the “PfCRT-mediated [3H]CQ transport, trans-stimulation (% PfCRTEcu1110 control)” value (PfCRT^Ecu1110 [8]; [11]) was 97 ± 2.9 % PfCRTEcu1110 control. For the same substance, the “[3H]CQ transport (% PfCRTDd2 control), trans-stimulation, PfCRTEcu1110” value (PfCRT^Ecu1110 [8]; [12]) was 30 ± 1.7 % PfCRTEcu1110 control, the “[3H]CQ transport (% PfCRTDd2 control), trans-stimulation, PfCRTEcu1110” value (PfCRT^Ecu1110 [8]; [9]) was 29 ± 1.4 % PfCRTEcu1110 control and the “Uptake of [3H]CQ (% PfNT1 control), trans-stimulation” value (PfNT1; [test solute]i = 5 mM) was 99 ± 2.5 % PfNT1 control. The “Uptake of [3H]CQ (% PfNT1 control), trans-stimulation” value (PfNT1; [9]) was 96 ± 2.2 % PfNT1 control.
